Data taken from PubChem BioAssay (NCI).
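Cells were grown in 96-well plates and exposed to each compound for 48 hours at five concentrations; endpoints were interpolated linearly between bracketing concentrations, or set to the highest concentration if not reached. At the GI50, growth is halved. Definition used: TGI = concentration required for complete inhibition of growth.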

How the values were obtained:
Assay in all cases: DTP human tumour cell line panel, 48 h
HT29 colon = test system: HT29 colon
MDA-MB-231 breast = test system: MDA-MB-231 breast
COLO 205 colon = test system: COLO 205 colon
SR leukemia = test system: SR leukemia
ACHN renal = test system: ACHN renal
SN12C renal = test system: SN12C renal
HCC-2998 colon = test system: HCC-2998 colon
SK-MEL-28 melanoma = test system: SK-MEL-28 melanoma
IGROV1 ovarian = test system: IGROV1 ovarian
HS 578T breast = test system: HS 578T breast
MDA-MB-435 = test system: MDA-MB-435
NCI-H522 lung = test system: NCI-H522 lung
A498 renal = test system: A498 renal
OVCAR-3 ovarian = test system: OVCAR-3 ovarian
RPMI-8226 leukemia = test system: RPMI-8226 leukemia
RXF 393 renal = test system: RXF 393 renal
U251 CNS = test system: U251 CNS
SNB-75 CNS = test system: SNB-75 CNS
KM12 colon = test system: KM12 colon
SK-OV-3 ovarian = test system: SK-OV-3 ovarian
NCI-H460 lung = test system: NCI-H460 lung
HCT-116 colon = test system: HCT-116 colon
EKVX NSCLC = test system: EKVX NSCLC
LOX IMVI melanoma = test system: LOX IMVI melanoma
TK-10 renal = test system: TK-10 renal
HOP-92 NSCLC = test system: HOP-92 NSCLC
SF-295 CNS = test system: SF-295 CNS
SNB-19 CNS = test system: SNB-19 CNS
CAKI-1 renal = test system: CAKI-1 renal
MCF7 breast = test system: MCF7 breast
M14 melanoma = test system: M14 melanoma
NCI-H226 lung = test system: NCI-H226 lung
HOP-62 NSCLC = test system: HOP-62 NSCLC
SW-620 colon = test system: SW-620 colon
UO-31 renal = test system: UO-31 renal
786-0 renal = test system: 786-0 renal
T-47D breast = test system: T-47D breast
A549 NSCLC = test system: A549 NSCLC
OVCAR-4 ovarian = test system: OVCAR-4 ovarian
OVCAR-8 ovarian = test system: OVCAR-8 ovarian
NCI/ADR-RES ovarian = test system: NCI/ADR-RES ovarian
SF-268 CNS = test system: SF-268 CNS
UACC-257 melanoma = test system: UACC-257 melanoma
UACC-62 melanoma = test system: UACC-62 melanoma
HL-60(TB) leukemia = test system: HL-60(TB) leukemia
DU-145 prostate = test system: DU-145 prostate
MOLT-4 leukemia = test system: MOLT-4 leukemia
PC-3 prostate = test system: PC-3 prostate
CCRF-CEM leukemia = test system: CCRF-CEM leukemia
NCI-H23 lung = test system: NCI-H23 lung
SK-MEL-5 melanoma = test system: SK-MEL-5 melanoma
K-562 leukemia = test system: K-562 leukemia
OVCAR-5 ovarian = test system: OVCAR-5 ovarian
MALME-3M melanoma = test system: MALME-3M melanoma
SF-539 CNS = test system: SF-539 CNS
BT-549 breast = test system: BT-549 breast
HCT-15 colon = test system: HCT-15 colon
SK-MEL-2 melanoma = test system: SK-MEL-2 melanoma

Work on `Cn1cc(-c2nc(N)nnc2-c2c[nH]c3ccccc23)c2cc(Br)ccc21` yielded a GI50 (HT29 colon) of 0.483 µM, a TGI (HT29 colon) of 5.38 µM and a GI50 (MDA-MB-231 breast) of 4.49 µM. For the same molecule, the TGI (MDA-MB-231 breast) was 66.1 µM, the GI50 (COLO 205 colon) was 0.877 µM and the TGI (COLO 205 colon) was 7.13 µM. It also gave a GI50 (SR leukemia) of 0.312 µM, a TGI (SR leukemia) of 2.43 µM and a GI50 (ACHN renal) of 3.57 µM. The TGI (ACHN renal) was 20 µM, the GI50 (SN12C renal) was 5.17 µM and the TGI (SN12C renal) was 47.9 µM. The GI50 (HCC-2998 colon) was 2.7 µM, the TGI (HCC-2998 colon) was 13.7 µM and the GI50 (SK-MEL-28 melanoma) was 6.98 µM. The TGI (SK-MEL-28 melanoma) was 22.5 µM, the GI50 (IGROV1 ovarian) was 0.9 µM and the TGI (IGROV1 ovarian) was 24.2 µM. The GI50 (HS 578T breast) was 1.89 µM, the TGI (HS 578T breast) was 9.3 µM and the GI50 (MDA-MB-435) was 0.312 µM. It also gave a TGI (MDA-MB-435) of 11.8 µM, a GI50 (NCI-H522 lung) of 0.646 µM and a TGI (NCI-H522 lung) of 8.03 µM. For the same molecule, the GI50 (A498 renal) was 1.19 µM, the TGI (A498 renal) was 5.7 µM and the GI50 (OVCAR-3 ovarian) was 0.507 µM. For the same molecule, the TGI (OVCAR-3 ovarian) was 4.94 µM, the GI50 (RPMI-8226 leukemia) was 2.35 µM and the TGI (RPMI-8226 leukemia) was 46.2 µM. The GI50 (RXF 393 renal) was 1.17 µM, the TGI (RXF 393 renal) was 4.4 µM and the GI50 (U251 CNS) was 2.26 µM. The TGI (U251 CNS) was 15.2 µM, the GI50 (SNB-75 CNS) was 0.46 µM and the TGI (SNB-75 CNS) was 4.54 µM. It also gave a GI50 (KM12 colon) of 0.591 µM, a TGI (KM12 colon) of 11.9 µM and a GI50 (SK-OV-3 ovarian) of 3.02 µM. The TGI (SK-OV-3 ovarian) was 18.7 µM, the GI50 (NCI-H460 lung) was 0.551 µM and the TGI (NCI-H460 lung) was 12.2 µM. For the same molecule, the GI50 (HCT-116 colon) was 0.518 µM, the TGI (HCT-116 colon) was 11.9 µM and the GI50 (EKVX NSCLC) was 2.62 µM. The TGI (EKVX NSCLC) was 23.4 µM, the GI50 (LOX IMVI melanoma) was 1.37 µM and the TGI (LOX IMVI melanoma) was 27.4 µM. For the same molecule, the GI50 (TK-10 renal) was 6.01 µM, the TGI (TK-10 renal) was 34.3 µM and the GI50 (HOP-92 NSCLC) was 2.62 µM. It also gave a TGI (HOP-92 NSCLC) of 22.4 µM, a GI50 (SF-295 CNS) of 0.922 µM and a TGI (SF-295 CNS) of 11.4 µM. The GI50 (SNB-19 CNS) was 2.05 µM, the TGI (SNB-19 CNS) was 22.7 µM and the GI50 (CAKI-1 renal) was 0.536 µM. The TGI (CAKI-1 renal) was 13.6 µM, the GI50 (MCF7 breast) was 0.48 µM and the TGI (MCF7 breast) was 16.4 µM. It also gave a GI50 (M14 melanoma) of 0.768 µM, a TGI (M14 melanoma) of 8.45 µM and a GI50 (NCI-H226 lung) of 2.39 µM. It also gave a TGI (NCI-H226 lung) of 15.9 µM, a GI50 (HOP-62 NSCLC) of 2.52 µM and a TGI (HOP-62 NSCLC) of 19.9 µM. For the same molecule, the GI50 (SW-620 colon) was 0.67 µM, the TGI (SW-620 colon) was 15.9 µM and the GI50 (UO-31 renal) was 1.99 µM. For the same molecule, the TGI (UO-31 renal) was 20.8 µM, the GI50 (786-0 renal) was 2.65 µM and the TGI (786-0 renal) was 17.6 µM. For the same molecule, the GI50 (T-47D breast) was 0.783 µM, the TGI (T-47D breast) was 24.4 µM and the GI50 (A549 NSCLC) was 1.55 µM. For the same molecule, the TGI (A549 NSCLC) was 39.7 µM, the GI50 (OVCAR-4 ovarian) was 3.72 µM and the TGI (OVCAR-4 ovarian) was 21.8 µM. The GI50 (OVCAR-8 ovarian) was 3.62 µM, the TGI (OVCAR-8 ovarian) was 69.5 µM and the GI50 (NCI/ADR-RES ovarian) was 1.67 µM. For the same molecule, the TGI (NCI/ADR-RES ovarian) was 18.6 µM, the GI50 (SF-268 CNS) was 2.51 µM and the TGI (SF-268 CNS) was 18.6 µM. It also gave a GI50 (UACC-257 melanoma) of 7.26 µM, a TGI (UACC-257 melanoma) of 22.4 µM and a GI50 (UACC-62 melanoma) of 0.988 µM. It also gave a TGI (UACC-62 melanoma) of 18.9 µM, a GI50 (HL-60(TB) leukemia) of 0.451 µM and a TGI (HL-60(TB) leukemia) of 7.69 µM. For the same molecule, the GI50 (DU-145 prostate) was 3.26 µM, the TGI (DU-145 prostate) was 14.8 µM and the GI50 (MOLT-4 leukemia) was 0.684 µM. It also gave a TGI (MOLT-4 leukemia) of 4.05 µM, a GI50 (PC-3 prostate) of 2.12 µM and a TGI (PC-3 prostate) of 64 µM. It also gave a GI50 (CCRF-CEM leukemia) of 2.21 µM, a TGI (CCRF-CEM leukemia) of 13.5 µM and a GI50 (NCI-H23 lung) of 2.21 µM. It also gave a TGI (NCI-H23 lung) of 17.2 µM, a GI50 (SK-MEL-5 melanoma) of 1.58 µM and a TGI (SK-MEL-5 melanoma) of 9.96 µM. The GI50 (K-562 leukemia) was 0.393 µM, the TGI (K-562 leukemia) was 13.2 µM and the GI50 (OVCAR-5 ovarian) was 5.9 µM. It also gave a TGI (OVCAR-5 ovarian) of 25.5 µM, a GI50 (MALME-3M melanoma) of 6.12 µM and a TGI (MALME-3M melanoma) of 32.2 µM. The GI50 (SF-539 CNS) was 2.17 µM, the TGI (SF-539 CNS) was 6.88 µM and the GI50 (BT-549 breast) was 1.53 µM. It also gave a TGI (BT-549 breast) of 14.5 µM, a GI50 (HCT-15 colon) of 0.552 µM and a TGI (HCT-15 colon) of 16.4 µM. It also gave a GI50 (SK-MEL-2 melanoma) of 1.9 µM and a TGI (SK-MEL-2 melanoma) of 13.6 µM.
